Test results reported in a compilation of properties of binary mixtures (doi:10.1016/j.jct.2016.06.015).

Assay: xn = mol fraction of the nth substance listed
Conditions: 100 kPa

CC[n+]1ccn(C)c1.F[B-](F)(F)F + C1COCCO1
viscosity [mPa·s]
Conditions | 293.15 K | 298.15 K | 303.15 K | 313.15 K | 323.15 K | 333.15 K | 343.15 K | 353.15 K
x2 = 0 | – | 41.5 | – | 24.8 | – | 14.5 | 11.7 | 9.58
x2 = 0.1664 | 35.8 | 29.8 | – | 18.5 | 14.3 | 11.1 | 8.96 | 7.38
x2 = 0.2149 | 32.1 | – | – | – | 13 | 10.3 | 8.38 | 6.91
x2 = 0.3162 | 24.9 | 21 | 18.1 | 13.6 | 10.6 | 8.52 | 6.97 | 5.81
x2 = 0.3591 | 22.2 | 18.8 | 16.2 | 12.3 | 9.69 | – | 6.41 | 5.37
x2 = 0.5077 | 13.8 | 12 | 10.5 | 8.21 | – | – | 4.53 | 3.86
x2 = 0.5453 | 12.2 | 10.6 | – | 7.33 | – | 4.9 | 4.12 | –
x2 = 0.6708 | 7.1 | 6.42 | 5.51 | 4.48 | 3.86 | 3.11 | 2.65 | 2.3

CC[n+]1ccn(C)c1.F[B-](F)(F)F + CC#N
viscosity [mPa·s]
Conditions | x2 = 0 | x2 = 0.0797 | x2 = 0.1787 | x2 = 0.2803 | x2 = 0.3682 | x2 = 0.4903 | x2 = 0.5753 | x2 = 0.7116 | x2 = 0.8301
293.15 K | 50.5 | 37.4 | – | 18.1 | 12.3 | 7.49 | 4.83 | 2.48 | 1.21
298.15 K | 41.5 | 31.1 | 21.4 | 15.6 | 10.7 | 6.64 | 4.38 | 2.29 | –
303.15 K | 34.5 | 26.2 | 18.3 | 13.5 | 9.45 | 5.94 | 4 | 2.11 | 1.08
313.15 K | 24.8 | 19.4 | 14 | – | – | 4.85 | 3.36 | 1.82 | 0.961
323.15 K | – | 14.9 | 11 | – | – | 4.05 | 2.87 | – | 0.866
333.15 K | 14.5 | 11.8 | 8.88 | – | 5.07 | 3.44 | 2.48 | – | 0.785
343.15 K | 11.7 | 9.6 | 7.29 | 5.68 | – | 2.97 | 2.17 | – | –

OCCO + CC[n+]1ccn(C)c1.F[B-](F)(F)F
x1 = 1
Conditions | viscosity [mPa·s]
303.15 K | 14.3
313.15 K | 10
333.15 K | 5.33
353.15 K | 3.24
